In patent US20260000655A1, “PHARMACEUTICAL COMPOSITION FOR USE IN PREVENTION OR TREATMENT OF LIFESTYLE-RELATED DISEASE” (priority 2022, published 2026):

Columns and labels:
[1] = system: GLUT4 (glucose transporter type 4); assay: Promotion of GLUT4 membrane translocation in L6-GLUT4myc; assay type: cell-based, rat; conditions: HPH-15 10 μM (1/200th of metformin 2 mM; insulin 100 nM), 24 hours
Experimental: GLUT4 (glucose transporter type 4) is involved in the uptake of glucose into cells. Thus, the relationship between HPH-15 and the membrane translocation of GLUT4 was examined using the myotube cell model L6-GLUT4myc.
The myotube cell model L6-GLUT4myc cells used in Example 1 were seeded onto a 24-well plate (1×10^5 cells/well, […] of culture liquid) and cultured overnight. Then, a DMSO solution (1%) containing HPH-15 (final concentration: 10 μM), metformin (final concentration: 2 mM), or insulin (final concentration: 100 nM) was added to the medium, and the cells were further cultured for 24 hours. As a control, only DMSO solution (1%) was added, and the cells were cultured for 24 hours in the same manner. Next, each cell was fixed for 20 minutes with a 3% paraformaldehyde solution (Tokyo Chemical Industry Co., Ltd.). The reaction was stopped with an 1% glycine solution (Merck KGaA), and blocking was performed for 15 minutes using a PBS solution containing 5% goat serum (FUJIFILM Wako Pure Chemical Corp.). […] Detection was performed using OPD reagent (o-phenylenediamine dihydrochloride: FUJIFILM Wako Pure Chemical Corp.), and the amount of GLUT4 was evaluated by measuring absorbance (492 nm).

adipocyte model 3T3-L1 = assay: Cytotoxicity (MTT reagent); assay type: cell-based, mouse; conditions: HPH-15 1 μM, 10 μM or 50 μM, 24 hours
Experimental: It was examined whether using HPH-15 as a drug caused any cytotoxicity.
The myotube cell model L6-GLUT4myc, the liver cell model HepG2 cells, and the adipocyte model 3T3-L1 used in Example 1 were each seeded onto a 24-well plate (1×10^5 cells/well, […] of culture liquid) and cultured overnight. Then, a DMSO solution (1%) containing HPH-15 (final concentration: 1 μM, 10 μM or 50 μM) was added to the medium, and the cells were further cultured for 24 hours. As a control, only DMSO solution (1%) was added, and the cells were cultured for 24 hours in the same manner. Next, […] of MTT reagent (3-(4,5-dimethyl-2-thiazolyl)-2,5-diphenyl-2H-tetrazolium bromide: 1.1 mg/mL: Dojindo Laboratories) was added to each well, and the cells were further cultured for 4 hours. After collecting the precipitated crystals, the supernatant was removed and DMSO ([…]) was added to completely dissolve the crystals. Cytotoxicity was evaluated by measuring the absorbance (550 nm) of the solution and determining the number of viable cells.

[2] = system: adenosine monophosphate-activated protein kinase (AMPK); assay: Activation of AMPK (p-AMPK/AMPK, Western blotting) in myotube cell model L6-GLUT4myc; assay type: cell-based, rat; conditions: HPH-15 at 1/200th the concentration of metformin (2 mM), 24 hours
From the text: The tissues involved in glucose uptake and glucose metabolism are mainly the muscle, the liver, and the fat. Thus, using a cell model of each tissue, the relationship between HPH-15 and activation of adenosine monophosphate-activated protein kinase (AMPK) was examined. Note that AMPK is known as a therapeutic target for diabetes. AMPK acts as an energy sensor, and when it detects a decrease in ATP serving as an intracellular energy source, it suppresses the synthesis of glucose, fats, and proteins and produces ATP. Exercise therapy for diabetes is based on this mechanism. Further, AMPK has been drawing attention as a factor that improves insulin resistance.
As a muscle cell model to be used, rat myoblast cell line L6-GLUT4myc (myoblasts expressing myc-tagged GLUT4) was cultured in a minimal essential medium a-MEM (10% FBS) and differentiated into myotubes. Differentiation into myotubes was performed by culturing L6-GLUT4 cells in a-MEM (10% FBS) and then changing the medium to a-MEM (2% FBS), followed by culturing for 6 days. Human HepG2 cell line was used as a liver cell model. As an adipocyte model to be used, mouse 3T3-L1 preadipocyte cell line was differentiated into adipocytes. Differentiation into adipocytes was performed as follows. […]
Next, bands of AMPK and p-AMPK were quantified using ImageJ to determine a ratio of activated AMPK relative to AMPK (p-AMPK/AMPK).

CC(C)(C)SCCNC(=S)c1cccc(C(=S)NCCSC(C)(C)C)n1 [HPH-15]
amount of GLUT4 localized in the membrane [1]: promoted membrane translocation of GLUT4 to the same extent as metformin or insulin | cytotoxicity (number of viable cells) (adipocyte model 3T3-L1): no cytotoxicity was confirmed | AMPK activation (p-AMPK/AMPK) compared to when metformin was used [2]: approximately 75%
